{
  "source": "paper PMC6751662",
  "about": "“Pharmacological and functional similarities of the human neuropeptide Y system in C. elegans challenges phylogenetic views on the FLP/NPR system” (Cell Communication and Signaling : CCS, 2019)",
  "key": {"NPFF1R": {"biological_target": "T1, NPFF1R (Homo sapiens, UniProt Q9GZQ6)", "T1 construct": "expressed in transfected cells; host or cells: HEK293, transient", "T1 sequence (Q9GZQ6 whole entry)": "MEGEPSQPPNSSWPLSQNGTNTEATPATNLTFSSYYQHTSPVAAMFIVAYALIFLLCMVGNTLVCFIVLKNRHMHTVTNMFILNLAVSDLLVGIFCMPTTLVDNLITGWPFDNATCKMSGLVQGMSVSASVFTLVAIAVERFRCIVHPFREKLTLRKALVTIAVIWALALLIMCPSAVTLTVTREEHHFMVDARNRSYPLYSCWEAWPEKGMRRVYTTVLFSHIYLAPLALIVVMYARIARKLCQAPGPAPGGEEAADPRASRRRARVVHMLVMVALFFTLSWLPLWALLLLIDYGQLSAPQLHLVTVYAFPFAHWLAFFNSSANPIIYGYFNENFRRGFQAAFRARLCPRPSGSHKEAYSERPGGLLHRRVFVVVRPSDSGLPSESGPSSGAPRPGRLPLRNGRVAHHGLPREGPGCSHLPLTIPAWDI", "assay": "IP accumulation assay, chimeric GαΔ6qi4myr, NPFF1R", "type": "cell-based", "conditions": "chimeric GαΔ6qi4myr co-transfected, transiently transfected HEK293 cells, mean of at least three independent experiments", "procedure": "(§1) For measuring IP accumulation, HEK293 cells grown to 70–80% confluency in 6-well plates were transiently co-transfected using Metafectene Pro (2.5 μl/μg DNA; Biontex) with plasmids containing receptor and/or mock (empty pcDNA3.1) (for endogenous Gq-coupling) using 4 μg total DNA in a ratio of 3:1 following the manufacturer’s instructions. For testing Gα16- and GαΔ6qi4myr-coupling, plasmids encoding the corresponding Gα protein were co-transfected instead of mock. Gα16 is naturally promiscuous and stimulates the phospholipase C (PLC) pathway leading to IP production, while the exchange of the C-terminal four amino acids of Gαq for the corresponding residues of Gαi1 in the chimeric GαΔ6qi4myr confers the ability to couple to Gi/o protein-preferring receptors but still stimulate PLC, thus specifically redirecting downstream cellular signaling. 16 h post transfection, the cells were seeded into white 384-well plates at a density of 20,000 cells/well. Media was removed 24 h later and the cells were incubated with the indicated concentration of peptides for 1 h in HBSS + 20 mM LiCl. IP accumulation was measured with the HTRF-based IP-One Gq kit (Cisbio) on a microplate reader (Tecan Spark).\n(§2) For in vitro activation, data is presented as mean ± SEM of at least three independent experiments conducted in technical triplicate. […] For the C. elegans NPRs, we considered the strongest response elicited by any of the peptides downstream of a particular receptor as the receptor’s maximal signal. This may or may not be the biological maximum that can be reached by the ‘true’ endogenous agonist. For the human receptors, the response to the established endogenous agonist reflected the maximal signal."}, "NPR-11": {"biological_target": "T2, NPR-11 (Caenorhabditis elegans, UniProt Q18179)", "T2 construct": "expressed in transfected cells; host or cells: HEK293, transient", "T2 sequence (Q18179 1-402)": "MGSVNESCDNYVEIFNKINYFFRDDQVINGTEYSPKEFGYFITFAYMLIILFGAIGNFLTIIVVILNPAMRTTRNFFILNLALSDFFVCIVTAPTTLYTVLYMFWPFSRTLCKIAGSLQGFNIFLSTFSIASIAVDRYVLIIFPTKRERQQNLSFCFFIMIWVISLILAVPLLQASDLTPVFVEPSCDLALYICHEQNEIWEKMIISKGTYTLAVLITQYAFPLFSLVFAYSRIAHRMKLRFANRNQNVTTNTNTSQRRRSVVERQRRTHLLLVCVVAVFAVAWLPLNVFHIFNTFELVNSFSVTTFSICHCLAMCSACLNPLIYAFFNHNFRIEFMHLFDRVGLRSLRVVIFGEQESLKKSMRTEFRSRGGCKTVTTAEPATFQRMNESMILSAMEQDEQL", "assay": "cAMP reporter gene assay, Gi/o (inhibition of forskolin-induced cAMP), NPR-11", "type": "cell-based, C. elegans", "conditions": "1 µM forskolin set to 1.00, transiently transfected HEK293 cells, mean of at least three independent experiments", "procedure": "(§3) Activation of Gs and Gi/o was assessed with a cAMP reporter gene assay. HEK293 cells grown to 70–80% confluency in 6-well plates were transiently co-transfected with vectors encoding the receptor and the cAMP reporter gene plasmid pGL4.29 [luc2P/CRE/Hygro] (Promega; 4 μg total, 1:1 ratio) using Metafectene Pro (3 μl/μg DNA; Biontex) following the manufacturer’s instructions. 16 h post transfection, the cells were seeded into white 384-well plates at a density of 20,000 cells/well. On the next day, the medium was removed and the cells were stimulated with 20 μl of peptide solution (or forskolin as positive control) in serum-free DMEM for 4 h. For measuring Gi/o activity, the peptide solutions additionally contained 1 μM forskolin to elevate cellular cAMP levels. After incubation, the luciferase substrate OneGlo in lysis buffer (Promega) was added and the luminescence was measured in a microplate reader Tecan Spark (Tecan). Data were analyzed with GraphPad Prism 5.03 and are shown as fold of basal or fold of forskolin in case of Gαi/o activity.\nas §2"}, "NPFF2R": {"biological_target": "T3, NPFF2R (Homo sapiens, UniProt Q9Y5X5)", "T3 construct": "expressed in transfected cells; host or cells: HEK293, transient", "T3 sequence (Q9Y5X5 103-522)": "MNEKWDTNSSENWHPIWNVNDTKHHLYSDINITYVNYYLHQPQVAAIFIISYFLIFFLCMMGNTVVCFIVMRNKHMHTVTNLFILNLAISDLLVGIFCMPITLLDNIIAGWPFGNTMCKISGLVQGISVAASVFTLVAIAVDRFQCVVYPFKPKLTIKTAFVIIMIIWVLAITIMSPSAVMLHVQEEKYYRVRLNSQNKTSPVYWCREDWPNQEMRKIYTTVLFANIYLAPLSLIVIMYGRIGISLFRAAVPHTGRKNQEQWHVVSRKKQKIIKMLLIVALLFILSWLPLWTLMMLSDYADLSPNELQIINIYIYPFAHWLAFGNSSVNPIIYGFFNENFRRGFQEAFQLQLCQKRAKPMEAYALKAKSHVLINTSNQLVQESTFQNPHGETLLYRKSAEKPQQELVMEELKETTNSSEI", "assay": "IP accumulation assay, chimeric GαΔ6qi4myr, NPFF2R", "type": "cell-based", "conditions": "chimeric GαΔ6qi4myr co-transfected, transiently transfected HEK293 cells, mean of at least three independent experiments", "procedure": "as §1, §2"}, "NPR-4b": {"biological_target": "T4, NPR-4b (Caenorhabditis elegans, UniProt A0A078BTK0)", "T4 sequence (A0A078BTK0 1-376)": "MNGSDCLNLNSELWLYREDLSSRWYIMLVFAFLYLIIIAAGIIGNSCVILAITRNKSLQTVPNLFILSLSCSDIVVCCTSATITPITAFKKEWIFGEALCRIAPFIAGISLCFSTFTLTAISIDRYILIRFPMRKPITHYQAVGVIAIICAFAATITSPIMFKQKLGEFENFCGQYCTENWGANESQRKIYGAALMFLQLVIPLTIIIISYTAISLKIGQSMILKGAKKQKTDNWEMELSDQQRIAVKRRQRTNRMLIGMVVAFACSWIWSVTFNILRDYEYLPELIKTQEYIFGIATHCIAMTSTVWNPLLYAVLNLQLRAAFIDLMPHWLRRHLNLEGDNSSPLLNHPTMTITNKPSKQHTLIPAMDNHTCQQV", "assay": "cAMP reporter gene assay, Gi/o (inhibition of forskolin-induced cAMP), NPR-4b", "type": "cell-based, C. elegans", "conditions": "1 µM forskolin set to 1.00, transiently transfected HEK293 cells, mean of at least three independent experiments", "procedure": "as §3, with “(Tecan).” for “(Tecan). Data were analyzed with GraphPad Prism 5.03 and are shown as fold of basal or fold of forskolin in case of Gαi/o activity.”\nas §2"}},
  "data": [
    {"substance": "PrRP31 [reference compound]", "values": [
      {"measurement": "IP accumulation, x-fold of basal (mean), NPFF1R", "setting": "NPFF1R; 0.1 µM peptide", "value": "0.87 x-fold of basal"},
      {"measurement": "IP accumulation, x-fold of basal (mean), NPFF1R", "setting": "NPFF1R; 10 µM peptide", "value": "2.26 x-fold of basal"},
      {"measurement": "cAMP, x-fold of forskolin (mean), NPR-11", "setting": "NPR-11; 0.1 µM peptide", "value": "1.06 x-fold of forskolin"},
      {"measurement": "cAMP, x-fold of forskolin (mean), NPR-11", "setting": "NPR-11; 10 µM peptide", "value": "0.74 x-fold of forskolin"},
      {"measurement": "IP accumulation, x-fold of basal (mean), NPFF2R", "setting": "NPFF2R; 0.1 µM peptide", "value": "1.83 x-fold of basal"},
      {"measurement": "IP accumulation, x-fold of basal (mean), NPFF2R", "setting": "NPFF2R; 10 µM peptide", "value": "2.28 x-fold of basal"},
      {"measurement": "cAMP, x-fold of forskolin (mean), NPR-4b", "setting": "NPR-4b; 0.1 µM peptide", "value": "1.05 x-fold of forskolin"},
      {"measurement": "cAMP, x-fold of forskolin (mean), NPR-4b", "setting": "NPR-4b; 10 µM peptide", "value": "0.64 x-fold of forskolin"}
    ]},
    {"substance": "TPDINPAWYASRGIRPVGRF-NH2 [PrRP20, human prolactin-releasing peptide, 20 residues, reference compound]", "values": [
      {"measurement": "IP accumulation, x-fold of basal (mean), NPFF1R", "setting": "NPFF1R; 0.1 µM peptide", "value": "0.94 x-fold of basal"},
      {"measurement": "IP accumulation, x-fold of basal (mean), NPFF1R", "setting": "NPFF1R; 10 µM peptide", "value": "2.37 x-fold of basal"},
      {"measurement": "cAMP, x-fold of forskolin (mean), NPR-11", "setting": "NPR-11; 0.1 µM peptide", "value": "0.90 x-fold of forskolin"},
      {"measurement": "cAMP, x-fold of forskolin (mean), NPR-11", "setting": "NPR-11; 10 µM peptide", "value": "0.65 x-fold of forskolin"},
      {"measurement": "IP accumulation, x-fold of basal (mean), NPFF2R", "setting": "NPFF2R; 0.1 µM peptide", "value": "1.75 x-fold of basal"},
      {"measurement": "IP accumulation, x-fold of basal (mean), NPFF2R", "setting": "NPFF2R; 10 µM peptide", "value": "2.32 x-fold of basal"},
      {"measurement": "cAMP, x-fold of forskolin (mean), NPR-4b", "setting": "NPR-4b; 0.1 µM peptide", "value": "1.10 x-fold of forskolin"},
      {"measurement": "cAMP, x-fold of forskolin (mean), NPR-4b", "setting": "NPR-4b; 10 µM peptide", "value": "0.67 x-fold of forskolin"}
    ]},
    {"substance": "TSGPLGNLAEELNGYSRKKGGFSFRF-NH2 [QRFP26, human pyroglutamylated RFamide peptide, 26 residues, reference compound]", "values": [
      {"measurement": "IP accumulation, x-fold of basal (mean), NPFF1R", "setting": "NPFF1R; 0.1 µM peptide", "value": "1.04 x-fold of basal"},
      {"measurement": "IP accumulation, x-fold of basal (mean), NPFF1R", "setting": "NPFF1R; 10 µM peptide", "value": "2.56 x-fold of basal"},
      {"measurement": "cAMP, x-fold of forskolin (mean), NPR-11", "setting": "NPR-11; 0.1 µM peptide", "value": "0.14 x-fold of forskolin"},
      {"measurement": "cAMP, x-fold of forskolin (mean), NPR-11", "setting": "NPR-11; 10 µM peptide", "value": "0.06 x-fold of forskolin"},
      {"measurement": "IP accumulation, x-fold of basal (mean), NPFF2R", "setting": "NPFF2R; 0.1 µM peptide", "value": "1.85 x-fold of basal"},
      {"measurement": "IP accumulation, x-fold of basal (mean), NPFF2R", "setting": "NPFF2R; 10 µM peptide", "value": "2.58 x-fold of basal"},
      {"measurement": "cAMP, x-fold of forskolin (mean), NPR-4b", "setting": "NPR-4b; 0.1 µM peptide", "value": "0.89 x-fold of forskolin"},
      {"measurement": "cAMP, x-fold of forskolin (mean), NPR-4b", "setting": "NPR-4b; 10 µM peptide", "value": "0.34 x-fold of forskolin"}
    ]}
  ]
}
